Test results reported in patent publication US20030207830A1, “Mutant NDP kinases for antiviral nucleotide analog activation and therapeutic uses thereof” (priority 2002, published 2003).
Where a chain is given by its changes, count along the chain named. Names and notes keep the numbering of the source.

What was measured:
[1] = molecular target: T1, Dictyostelium NDP Kinase wt (Dictyostelium discoideum, UniProt P22887); test: Pre-steady-state fluorescence stopped-flow phosphotransfer from nucleoside triphosphates, wild type Dd-NDPK; type: biochemical; conditions: average of three determinations
T1 construct: made in house
Description: (§1) The binding constants were determined at equilibrium by recording the increase in fluorescence (Schneider, 2000).
After mixing NDPK (1 μM) and NTP or an analogTP (10-500 μM), the intrinsic protein fluorescence was recorded for 10-200 sec. In each experiment, 400 pairs of data were recorded, and the data from 3-4 identical experiments were averaged and fitted to a number of non-linear analytical equations using the software provided by Hi-Tech.
(§2) The data were analyzed using the reaction scheme: [drawing 1]
The rate of this observed single step is: [formula]
(§3) and reaches a limiting value (k+2) at NTP saturation. […] Therefore, catalytic efficiencies of phosphorylation (CEphos=k+2/(k−1/k+1)=k+2/KS) were measured, which are equivalent to second order constants and allow a reliable comparison of a variety of NDP kinase substrates.

[2] = molecular target: T2, Dictyostelium discoideum NDP kinase inactive variant EI (H122G-F64W) (Dictyostelium discoideum, UniProt P22887, F64W/H122G); test: biochemical; type: binding
T2 construct: made in house
Description: as §1
(§4) Analog binding affinity was measured using a variant of Dd-NDPK (EI) as described (Schneider, 2000). […] The mutation N119S was inserted in EI in order to measure the nucleotide affinity by fluorescence titration.
(§5) Altered bases as compared to the wild type sequence are underlined in bold. Sequences were checked by automatic sequencing. The mutant EI-N119S was obtained by mutation of the previously described F64W-H122G mutated NDP kinase (here called EI) (Schneider 2000).

[3] = molecular target: T3, Dictyostelium discoideum NDP kinase inactive variant EI-N119S (H122G-F64W-N119S) (Dictyostelium discoideum, UniProt P22887, F64W/H122G/N119S); test: biochemical; type: binding
T3 construct: made in house
Description: as §1, §4, §5

[4] = molecular target: T4, Dictyostelium discoideum NDP kinase (Dd-NDPK) variant N119S, SEQ ID NO: 1 (Dictyostelium discoideum, UniProt P22887, N119S); test: Pre-steady-state phosphotransfer, fluorescence stopped-flow; type: biochemical; conditions: for k2/Ks: catalytic efficiency of phosphotransfer, N119S, pre-steady state
T4 construct: made in house
Description: (§6) (A) Kinetics of reaction of phosphorylated Dictyostelium wild type and N119S NDP kinases by 100 μM Acyclovir diphosphate (Acy-DP). The phosphorylated enzyme was prepared with a stoichiometry #1 as described (Deville-Bonne 1996). The kinases were preincubated with ATP in excess in buffer T (50 mM Tris-HCl, pH 7.5, 5 mM MgCl2 and 75 mM KCl). The increase in fluorescence upon mixing the phospho-enzyme (1 μM, final concentration) with Acy-DP in buffer T at 20° C. was monitored with a stopped-flow. The solid lines represent the best fit of each curve to a monoexponential.
(§7) (B) Concentration dependence of the rate constant on Acy-DP concentation. The pseudo-first order rate constant for the reaction (kobs) was plotted against Acy-DP.
(§8) All numbers in italics have already been published (Schneider, 1998, 2000) The kinetic constants were measured at the pre-steady-state level using a fluorescence stopped-flow device. The binding constants were determined at equilibrium by recording the increase in fluorescence (Schneider, 2000). Values are the average of three independent determinations.
(§9) Wild type human NDPK-A and the mutants were expressed and purified according to Schneider et al., 2000, Mol Pharm. Recombinant wild type and mutant Dd-NDPK were obtained as described (Schneid, 1998a), except for N119Y NDP kinase which was partially purified by Q sepharose FF chromatography. Each protein was characterized by […] electrophoresis. The concentration of 17 kDa subunits of the enzyme was either determined by Bradford assay ([…]) or using an absorbance coefficient of ΔA^280=1.249 for a 1 mg/mL solution of human wild type and N115S NDPK-A, and =0.55 for wild type and mutant N119S, N119T Dd-NDP kinases, respectively.
(§10) As the diphosphate form of analogs were not always available, the triphosphate analogs were used to study phosphate transfer in reaction as in Scheme I. Experiments were performed with an Hi-Tech DX2 microvolume stopped-flow reaction (Schneider, 1998) at Aexc=296 nm (for Ado derivatives) or […] (for other nucleotides), 2 mm excitation slit and a 320 nm cutoff filter at the emission. After mixing NDPK (1 μM) and NTP or an analogTP (10-500 μM), the intrinsic protein fluorescence was recorded for 10-200 sec. In each experiment, 400 pairs of data were recorded, and the data from 3-4 identical experiments were averaged and fitted to a number of non-linear analytical equations using the software provided by Hi-Tech. All curves fitted to single exponentials.
as §2
(§11) In both the forward and the reverse reactions, the product concentration remains very low, thus the product binding can be neglected, and the observed single step could be attributed to the phosphotransfer (Schneider, 1998). The rate of this observed single step is: [formula]
(§12) and reaches a limiting value (k+2) at NTP saturation. Saturation could not be obtained with the concentrations of any NTP used here. Therefore, catalytic efficiencies of phosphorylation (CEphos=k+2/(k−1/k+1)=k+2/KS) were measured, which are equivalent to second order constants and allow a reliable comparison of a variety of NDP kinase substrates.

[5] = molecular target: T5, Dictyostelium discoideum NDP kinase (Dd-NDPK), wild type (Dictyostelium discoideum, UniProt P22887); test: as above; type: biochemical; conditions: catalytic efficiency of phosphotransfer, wt
T5 construct: made in house
Description: as §6, §7, §8, §9, §10, §2, §11, §12

[6] = molecular target: T6, Dictyostelium NDP Kinase N119S (Dictyostelium discoideum, UniProt P22887, N119S); test: Pre-steady-state fluorescence stopped-flow phosphotransfer from nucleoside triphosphates, N119S Dd-NDPK; type: biochemical; conditions: pre-steady state, stopped-flow; average of three determinations
T6 construct: made in house
Description: as §8, §10, §2, §11, §12

[7] = molecular target: T7, human NDP kinase A (NDPK-A) variant L55H (Homo sapiens, UniProt P15531, L55H); test: Pre-steady-state phosphotransfer, fluorescence stopped-flow; type: biochemical; conditions: for k2/Ks: catalytic efficiency of phosphotransfer; for Specificity change (R): ratio of catalytic efficiencies analog vs natural nucleotide, mutant vs wild type
T7 construct: made in house; host or cells: E. coli
Description: (§13) FIG. 3 depicts the catalytic efficiency of NDPK-A and mutants for nucleoside analogs. The rates of phosphorylation of pure recombinant NDP kinases (1 μM) were measured at the pre-steady state in a fluorescence stopped-flow with d4T-TP (10 to 80 μM). The catalytic efficiency (expressed in M^−1s^−1) was determined from the variation of the rate as a function of analog as shown in FIG. 2 (▾, NDPK-A, ♦ L55H, ● N115S, ▪ L55H-N115S).
(§14) The activity assays were performed at the pre-steady state level.
(§15) R, the specificity change, is the ratio of the catalytic efficiencies (for analog versus natural nucleotide) of the mutant compared to the wild type enzyme.
as §9
as §10, with “Hi-Tech.” for “Hi-Tech. All curves fitted to single exponentials.”
as §2, §11, §3

[8] = molecular target: T8, human NDP kinase A (NDPK-A) variant N115S, SEQ ID NO: 2 (Homo sapiens, UniProt P15531, N115S); test: as above; type: biochemical; conditions: for k2/Ks: catalytic efficiency of phosphotransfer; for Specificity change (R): ratio of catalytic efficiencies analog vs natural nucleotide, mutant vs wild type
T8 construct: made in house; host or cells: E. coli
Description: as §13, §14, §15, §9
as §10, with “Hi-Tech.” for “Hi-Tech. All curves fitted to single exponentials.”
as §2, §11, §3

[9] = molecular target: T9, human NDP kinase A (NDPK-A) variant L55H-N115S, SEQ ID NO: 3 (Homo sapiens, UniProt P15531, L55H/N115S); test: as above; type: biochemical; conditions: for k2/Ks: catalytic efficiency of phosphotransfer; for Specificity change (R): ratio of catalytic efficiencies analog vs natural nucleotide, mutant vs wild type; for enhancement of ability to phosphorylate: substitution of Asn 115 for Ser and Leu 55 for His
T9 construct: made in house; host or cells: E. coli
Description: as §13, §14, §15, §9
as §10, with “Hi-Tech.” for “Hi-Tech. All curves fitted to single exponentials.”
as §2, §11, §3

[10] = molecular target: T10, human NDP kinase A (NDPK-A, nm23-H1), wild type (Homo sapiens, UniProt P15531); test: as above; type: biochemical; conditions: for k2/Ks: catalytic efficiency of phosphotransfer, NDPK-A, pre-steady state
T10 construct: made in house
Description: as §13, §14, §9
as §10, with “Hi-Tech.” for “Hi-Tech. All curves fitted to single exponentials.”
as §2, §11, §3

[11] = Steady-state NDP kinase activity, coupled enzymes (pyruvate kinase, lactate dehydrogenase); type: biochemical; conditions: for specific activity: standard conditions: [ATP]=1 mM, [dTDP]=0.2 mM, 20° C.
Description: The activity of NDP kinase was measured at 20° C. with ATP and dTDP as substrates using coupled enzymes (pyruvate kinase and lactate dehydrogenase) (Lascu 1993). One unit is the amount of enzyme that catalyzes the phosphotransfer of 1 μmol/min under standard conditions: [ATP]=1 mM, [dTDP]=0.2 mM. Rate constants (kcat) and Michaelis constants (Km) were determined from initial velocities for two different constant ratios of nucleotide [dTDP]/[ATP]=0.05 0.1 with [ATP] varying from 0.2 to 2 mM. kcat is expressed by enzyme subunit. The ratio of the ^apparentkcat/^apparentKM at a given concentration of the other substrate is equal to the true value of kcat/KM for a ping-pong enzyme.

T2 sequence (P22887 whole entry F64W/H122G): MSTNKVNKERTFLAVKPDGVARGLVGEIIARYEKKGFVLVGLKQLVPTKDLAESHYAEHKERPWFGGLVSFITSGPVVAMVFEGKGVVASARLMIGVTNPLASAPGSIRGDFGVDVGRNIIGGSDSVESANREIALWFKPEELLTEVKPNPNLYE
T4 sequence (P22887 whole entry N119S): as the sequence (P22887 whole entry F64W/H122G) above, with W64F, N119S, G122H counted along it
T7 sequence (P15531 whole entry L55H): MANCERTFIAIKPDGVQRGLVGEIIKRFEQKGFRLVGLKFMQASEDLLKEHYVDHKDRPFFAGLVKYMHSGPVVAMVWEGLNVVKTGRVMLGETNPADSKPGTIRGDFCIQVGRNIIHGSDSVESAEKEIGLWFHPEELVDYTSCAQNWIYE
T5 sequence (P22887 whole entry): as the sequence (P22887 whole entry F64W/H122G) above, with W64F, G122H counted along it
T3 sequence (P22887 whole entry F64W/N119S/H122G): as the sequence (P22887 whole entry F64W/H122G) above, with N119S counted along it
T10 sequence (P15531 whole entry): as the sequence (P15531 whole entry L55H) above, with H55L counted along it
T9 sequence (P15531 whole entry L55H/N115S): as the sequence (P15531 whole entry L55H) above, with N115S counted along it
T8 sequence (P15531 whole entry N115S): as the sequence (P15531 whole entry L55H) above, with H55L, N115S counted along it
T6 sequence (P22887 whole entry N119S): as the sequence (P22887 whole entry F64W/H122G) above, with W64F, N119S, G122H counted along it
T1 sequence (P22887 whole entry): as the sequence (P22887 whole entry F64W/H122G) above, with W64F, G122H counted along it

Nc1ncnc2c1ncn2[C@@H]1O[C@H](COP(=O)(O)OP(=O)(O)OP(=O)(O)O)[C@@H](O)[C@H]1O [ATP]
k2/Ks wt (catalytic efficiency of phosphotransfer) [1]: 4.5e+06 M⁻¹ s⁻¹
Kd [2]: 0.2 µM
Kd [3]: 2.4 µM
k2/Ks [4]: 250000 M⁻¹ s⁻¹
k2/Ks [5]: 4.5e+06 M⁻¹ s⁻¹
k2/Ks N119S (catalytic efficiency of phosphotransfer) [6]: 250000 M⁻¹ s⁻¹

Nc1nc2c(ncn2COCCOP(=O)(O)OP(=O)(O)OP(=O)(O)O)c(=O)[nH]1 [acyclovirTP]
k2/Ks ([7]; L55H, pre-steady state): 160 M⁻¹ s⁻¹
Specificity change (R) [7]: (3.4)
k2/Ks ([8]; N115S, pre-steady state): 250 M⁻¹ s⁻¹
Specificity change (R) [8]: (150)
k2/Ks ([9]; L55H-N115S, pre-steady state): 2600 M⁻¹ s⁻¹
Specificity change (R) [9]: (460)
k2/Ks [10]: 25 M⁻¹ s⁻¹
Kd [2]: 190 µM
Kd [3]: 20 µM
increase of affinity by Ser (N119S) ([3]; relative KD, EI versus EI-N119S): 10 fold
ranking as analog substrate ([4]; N119S NDP kinase): best analog substrate
k2/Ks [4]: 1650 M⁻¹ s⁻¹
k2/Ks [5]: 350 M⁻¹ s⁻¹

Nc1nc2c(ncn2COCCO)c(=O)[nH]1 [acyclovir]
enhancement of ability to phosphorylate [9]: 200-300 times

Cc1cn([C@H]2C=C[C@@H](COP(=O)(O)OP(=O)(O)OP(=O)(O)O)O2)c(=O)[nH]c1=O [d4T-TP, dideoxy, didehydro-TTP]
reaction rate compared with Dd-NDPK ([7]; L55H mutant): at the same rate as Dd-NDPK
factor of rate versus wild type NDPK-A ([7]; L55H, pre-steady state): 9
k2/Ks ([7]; L55H, pre-steady state): 1280 M⁻¹ s⁻¹
Specificity change (R) [7]: (10)
factor of rate versus wild type NDPK-A ([8]; N115S, pre-steady state): 1.8
k2/Ks ([8]; N115S, pre-steady state): 6250 M⁻¹ s⁻¹
Specificity change (R) [8]: (120)
factor of rate versus wild type NDPK-A ([9]; L55H-N115S, pre-steady state): 80
reactivity compared with dTTP ([9]; double mutant, catalytic efficiency): eight fold less
Specificity change (R) [9]: (210)
times more slowly than with dTTP ([10]; NDPK-A wild type): 1700 times
k2/Ks [10]: 700 M⁻¹ s⁻¹

Cc1cn([C@H]2C=C[C@@H](CO)O2)c(=O)[nH]c1=O [d4T]
enhancement of ability to phosphorylate [9]: 200-300 times

Nc1nc2c(ncn2[C@H]2C[C@H](O)[C@@H](COP(=O)(O)OP(=O)(O)OP(=O)(O)O)O2)c(=O)[nH]1 [dGTP]
k2/Ks ([7]; L55H, pre-steady state): 6.8e+06 M⁻¹ s⁻¹
k2/Ks ([8]; N115S, pre-steady state): 240000 M⁻¹ s⁻¹
k2/Ks ([9]; L55H-N115S, pre-steady state): 500000 M⁻¹ s⁻¹
k2/Ks [10]: 3.6e+06 M⁻¹ s⁻¹

Nc1ncnc2c1ncn2[C@H]1CC[C@@H](COP(=O)(O)OP(=O)(O)OP(=O)(O)O)O1 [ddATP]
Kd [2]: 4.6 µM
Kd [3]: 2.6 µM
k2/Ks [4]: 2700 M⁻¹ s⁻¹
k2/Ks [5]: 1300 M⁻¹ s⁻¹
k2/Ks N119S (catalytic efficiency of phosphotransfer) [6]: 2700 M⁻¹ s⁻¹

Cc1cn([C@H]2CC[C@@H](COP(=O)(O)OP(=O)(O)OP(=O)(O)O)O2)c(=O)[nH]c1=O [dideoxy-TTP]
k2/Ks ([7]; L55H, pre-steady state): 200 M⁻¹ s⁻¹
Specificity change (R) [7]: (6)
k2/Ks ([8]; N115S, pre-steady state): 170 M⁻¹ s⁻¹
Specificity change (R) [8]: (100)
k2/Ks ([9]; L55H-N115S, pre-steady state): 2800 M⁻¹ s⁻¹
Specificity change (R) [9]: (370)
k2/Ks [10]: 20 M⁻¹ s⁻¹

L55H: human NDPK-A with Leu 55 replaced by His
steady-state activity relative to NDPK-A ([11]; ATP and dTDP): 1.6 fold
specific activity [11]: 1900 U/mg

B1: N119Y: Dd-NDPK with Tyr at the position of Asn 119, unstable and poorly active (protein, UniProt P22887 1-155, looked up, variant N119Y)
Nucleoside diphosphate …: MSTNKVNKERTFLAVKPDGVARGLVGEIIARYEKKGFVLVGLKQLVPTKDLAESHYAEHKERPFFGGLVSFITSGPVVAMVFEGKGVVASARLMIGVTNPLASAPGSIRGDFGVDVGRYIIHGSDSVESANREIALWFKPEELLTEVKPNPNLYE
activity relative to wild type ([11]; Dd-NDPK mutant, partially purified): 0.05 % of wild type activity

B2: Dd-NDPK: wild type NDP kinase from Dictyostelium discoideum (protein, UniProt P22887 1-155, looked up)
Nucleoside diphosphate …: B1 Nucleoside diphosphate … with Y119N
specific activity [11]: 2000 U/mg
